Laboratory results: the NIST ThermoML archive (doi:10.1021/je800110r)
Several values for one entry are separate records, joined by “and”; a condition that tells them apart may be missing. Equal values may be shown once.

Details: 313.14 K, Liquid, Vibrating tube method

CCCCCCCCCC [decane]
Details | mass density
4519 kPa | 718.5 kg/m3
4530 kPa | 718.5 kg/m3
4546 kPa | 718.5 kg/m3
4557 kPa | 718.5 kg/m3
4572 kPa | 718.5 kg/m3
4582 kPa | 718.5 kg/m3
4599 kPa | 718.5 kg/m3
4610 kPa | 718.6 kg/m3
4621 kPa | 718.5 kg/m3
4637 kPa | 718.6 kg/m3
4652 kPa | 718.6 kg/m3
4667 kPa | 718.6 kg/m3
4685 kPa | 718.6 kg/m3
4705 kPa | 718.7 kg/m3
4723 kPa | 718.6 kg/m3
4741 kPa | 718.8 kg/m3
4755 kPa | 718.6 kg/m3
4774 kPa | 718.6 kg/m3
4792 kPa | 718.7 kg/m3
4814 kPa | 718.7 kg/m3
4825 kPa | 718.7 kg/m3
4842 kPa | 718.7 kg/m3
4859 kPa | 718.8 kg/m3
4873 kPa | 718.8 kg/m3
4891 kPa | 718.7 kg/m3
4913 kPa | 718.8 kg/m3
4930 kPa | 718.8 kg/m3
4945 kPa | 718.8 kg/m3
4968 kPa | 718.8 kg/m3
4991 kPa | 718.9 kg/m3
5004 kPa | 718.8 kg/m3
5027 kPa | 718.9 kg/m3
5042 kPa | 718.9 kg/m3
5063 kPa | 718.9 kg/m3
5079 kPa | 719 kg/m3
5092 kPa | 719 kg/m3
5111 kPa | 719 kg/m3
5130 kPa | 719 kg/m3
5149 kPa | 719 kg/m3
5165 kPa | 718.9 kg/m3
5185 kPa | 719 kg/m3
5207 kPa | 719 kg/m3
5230 kPa | 719.2 kg/m3
5251 kPa | 719.2 kg/m3
5270 kPa | 719.1 kg/m3
5300 kPa | 719.2 kg/m3
5315 kPa | 719.3 kg/m3
5316 kPa | 719.2 kg/m3
5318 kPa | 719.2 kg/m3
5320 kPa | 719.2 kg/m3
5321 kPa | 719.1 kg/m3 and 719.3 kg/m3
5322 kPa | 719.2 kg/m3
5338 kPa | 719.1 kg/m3
5355 kPa | 719.1 kg/m3
5373 kPa | 719.2 kg/m3
5385 kPa | 719.3 kg/m3
5399 kPa | 719.3 kg/m3
5414 kPa | 719.1 kg/m3
5430 kPa | 719.2 kg/m3
5444 kPa | 719.2 kg/m3
5461 kPa | 719.2 kg/m3
5478 kPa | 719.2 kg/m3
5498 kPa | 719.3 kg/m3
5515 kPa | 719.3 kg/m3
5537 kPa | 719.4 kg/m3
5552 kPa | 719.4 kg/m3
5568 kPa | 719.4 kg/m3
5586 kPa | 719.4 kg/m3
5603 kPa | 719.4 kg/m3
5622 kPa | 719.4 kg/m3
5636 kPa | 719.4 kg/m3
5655 kPa | 719.4 kg/m3
5671 kPa | 719.5 kg/m3
5686 kPa | 719.4 kg/m3
5705 kPa | 719.4 kg/m3
5721 kPa | 719.5 kg/m3
5739 kPa | 719.5 kg/m3
5753 kPa | 719.5 kg/m3
5771 kPa | 719.5 kg/m3
5788 kPa | 719.6 kg/m3
5803 kPa | 719.5 kg/m3
5819 kPa | 719.6 kg/m3
5838 kPa | 719.5 kg/m3
5852 kPa | 719.6 kg/m3
5871 kPa | 719.7 kg/m3
5889 kPa | 719.6 kg/m3
5906 kPa | 719.7 kg/m3
5927 kPa | 719.6 kg/m3
5946 kPa | 719.7 kg/m3
5963 kPa | 719.6 kg/m3
5982 kPa | 719.7 kg/m3
6002 kPa | 719.7 kg/m3
6019 kPa | 719.8 kg/m3
6042 kPa | 719.8 kg/m3
6064 kPa | 719.8 kg/m3
6084 kPa | 719.8 kg/m3
6100 kPa | 719.8 kg/m3
6120 kPa | 719.9 kg/m3
6140 kPa | 719.8 kg/m3
6162 kPa | 719.8 kg/m3
6180 kPa | 719.9 kg/m3
6198 kPa | 719.9 kg/m3
6202 kPa | 719.8 kg/m3
6204 kPa | 719.9 kg/m3
6213 kPa | 719.9 kg/m3
6230 kPa | 719.9 kg/m3
6246 kPa | 719.9 kg/m3
6262 kPa | 720 kg/m3
6278 kPa | 719.9 kg/m3
6295 kPa | 720 kg/m3
6313 kPa | 720 kg/m3
6332 kPa | 720 kg/m3
6353 kPa | 720.1 kg/m3
6367 kPa | 720 kg/m3
6383 kPa | 720 kg/m3
6398 kPa | 720.1 kg/m3
6420 kPa | 720.1 kg/m3
6438 kPa | 720.1 kg/m3
6453 kPa | 720 kg/m3
6472 kPa | 720.1 kg/m3
6484 kPa | 720 kg/m3
6500 kPa | 720.1 kg/m3
6518 kPa | 720.1 kg/m3
6531 kPa | 720.1 kg/m3
6545 kPa | 720.1 kg/m3
6559 kPa | 720.1 kg/m3
6575 kPa | 720.1 kg/m3
6586 kPa | 720.2 kg/m3
6599 kPa | 720.3 kg/m3
6611 kPa | 720.2 kg/m3
6626 kPa | 720.1 kg/m3
6643 kPa | 720.3 kg/m3
6658 kPa | 720.3 kg/m3
6675 kPa | 720.3 kg/m3
6689 kPa | 720.2 kg/m3
6708 kPa | 720.2 kg/m3
6723 kPa | 720.2 kg/m3
6742 kPa | 720.4 kg/m3
6755 kPa | 720.3 kg/m3
6767 kPa | 720.4 kg/m3
6785 kPa | 720.4 kg/m3
6815 kPa | 720.3 kg/m3
6833 kPa | 720.3 kg/m3
6865 kPa | 720.4 kg/m3
6886 kPa | 720.5 kg/m3
6901 kPa | 720.4 kg/m3
6948 kPa | 720.6 kg/m3
6966 kPa | 720.6 kg/m3
6975 kPa | 720.6 kg/m3
6989 kPa | 720.6 kg/m3
7007 kPa | 720.5 kg/m3
7019 kPa | 720.6 kg/m3
7031 kPa | 720.6 kg/m3
7045 kPa | 720.6 kg/m3
7061 kPa | 720.6 kg/m3
7077 kPa | 720.6 kg/m3
7089 kPa | 720.7 kg/m3
7101 kPa | 720.6 kg/m3
7118 kPa | 720.6 kg/m3
7136 kPa | 720.7 kg/m3
7149 kPa | 720.6 kg/m3
7165 kPa | 720.7 kg/m3
7180 kPa | 720.7 kg/m3
7195 kPa | 720.7 kg/m3
7209 kPa | 720.7 kg/m3
7226 kPa | 720.7 kg/m3
7241 kPa | 720.8 kg/m3
7252 kPa | 720.6 kg/m3
7264 kPa | 720.7 kg/m3
7279 kPa | 720.8 kg/m3
7292 kPa | 720.8 kg/m3
7306 kPa | 720.8 kg/m3
7317 kPa | 720.7 kg/m3
7332 kPa | 720.8 kg/m3
7347 kPa | 720.8 kg/m3
7360 kPa | 720.9 kg/m3
7375 kPa | 720.8 kg/m3
7392 kPa | 720.9 kg/m3
7410 kPa | 720.8 kg/m3
7423 kPa | 720.9 kg/m3
7441 kPa | 720.8 kg/m3
7455 kPa | 720.9 kg/m3
7473 kPa | 720.9 kg/m3
7487 kPa | 721 kg/m3
7507 kPa | 721 kg/m3
7523 kPa | 721 kg/m3
7537 kPa | 720.9 kg/m3
7553 kPa | 720.9 kg/m3
7569 kPa | 721.1 kg/m3
7590 kPa | 721 kg/m3
7605 kPa | 721 kg/m3
7621 kPa | 721.1 kg/m3
7635 kPa | 721.1 kg/m3
7652 kPa | 721.1 kg/m3
7666 kPa | 721.1 kg/m3
7683 kPa | 721.1 kg/m3
7702 kPa | 721 kg/m3
7717 kPa | 721.1 kg/m3
7731 kPa | 721.2 kg/m3
7750 kPa | 721.2 kg/m3
7768 kPa | 721.2 kg/m3
7782 kPa | 721.1 kg/m3
7805 kPa | 721.2 kg/m3
7820 kPa | 721.3 kg/m3
7835 kPa | 721.2 kg/m3
7851 kPa | 721.3 kg/m3
7873 kPa | 721.2 kg/m3
7890 kPa | 721.3 kg/m3
7910 kPa | 721.2 kg/m3
7922 kPa | 721.3 kg/m3
7941 kPa | 721.2 kg/m3
7959 kPa | 721.4 kg/m3
8144 kPa | 721.4 kg/m3
8162 kPa | 721.4 kg/m3
8174 kPa | 721.5 kg/m3
8184 kPa | 721.6 kg/m3
8194 kPa | 721.6 kg/m3
8205 kPa | 721.5 kg/m3
8220 kPa | 721.6 kg/m3
8237 kPa | 721.5 kg/m3
8248 kPa | 721.5 kg/m3
8262 kPa | 721.5 kg/m3
8277 kPa | 721.6 kg/m3
8293 kPa | 721.5 kg/m3
8309 kPa | 721.7 kg/m3
8321 kPa | 721.6 kg/m3
8338 kPa | 721.7 kg/m3
8352 kPa | 721.6 kg/m3
8364 kPa | 721.7 kg/m3
8383 kPa | 721.6 kg/m3
8395 kPa | 721.7 kg/m3
8410 kPa | 721.7 kg/m3
8421 kPa | 721.7 kg/m3
8435 kPa | 721.8 kg/m3
8448 kPa | 721.8 kg/m3
8462 kPa | 721.7 kg/m3
8482 kPa | 721.9 kg/m3
8494 kPa | 721.8 kg/m3
8514 kPa | 721.7 kg/m3
8524 kPa | 721.8 kg/m3
8544 kPa | 721.9 kg/m3
8559 kPa | 721.8 kg/m3
8579 kPa | 721.8 kg/m3
8592 kPa | 721.8 kg/m3
8614 kPa | 721.8 kg/m3
8629 kPa | 721.8 kg/m3
8680 kPa | 721.9 kg/m3
8691 kPa | 722.1 kg/m3
8725 kPa | 722.1 kg/m3
8740 kPa | 722 kg/m3
8754 kPa | 722 kg/m3
8773 kPa | 722 kg/m3
8791 kPa | 722 kg/m3
8807 kPa | 722.1 kg/m3
8821 kPa | 722 kg/m3
8835 kPa | 721.9 kg/m3
8858 kPa | 722.1 kg/m3
8876 kPa | 722.2 kg/m3
8897 kPa | 722.1 kg/m3
8911 kPa | 722.1 kg/m3
8930 kPa | 722.1 kg/m3
8944 kPa | 722 kg/m3
8964 kPa | 722 kg/m3
8980 kPa | 722.1 kg/m3
9004 kPa | 722.1 kg/m3
9023 kPa | 722.2 kg/m3
9038 kPa | 722.2 kg/m3
9053 kPa | 722.2 kg/m3
9075 kPa | 722.3 kg/m3
9092 kPa | 722.2 kg/m3
9106 kPa | 722.2 kg/m3
9121 kPa | 722.3 kg/m3
9138 kPa | 722.3 kg/m3
